Measurements published in ChEMBL document CHEMBL5214929, “Updated chemical scaffolds of ABCG2 inhibitors and their structure-inhibition relationships for future development” (Eur J Med Chem, 2022).
pIC50: −log10 of the molar value. Each block holds one molecule with its values, some of them ahead of it.

How the values were obtained:
[1] = system: HEK293; experiment: Cytotoxicity against HEK293 cells expressing ABCG2-R-482 wildtype assessed as decrease in mitoxantrone half inhibitory concentration; assay type: functional, cell-based; details: Homo sapiens
[2] = system: HEK293; experiment: Cytotoxicity against HEK293 cells expressing ABCG2-R-482 mutant assessed as decrease in mitoxantrone half inhibitory concentration; assay type: functional, cell-based; details: Homo sapiens
[3] = system: HEK293; experiment: Cytotoxicity against HEK293 cells expressing ABCG2 in presence of methotrexate; assay type: functional, cell-based; details: Homo sapiens
[4] = system: S1-M1-80; experiment: Cytotoxicity against human S1M180 cells in presence of topotecan; assay type: functional, cell-based
[5] = system: MCF7; experiment: Cytotoxicity against human MCF7 cells assessed as increase in cytotoxic drug half inhibitory concentration; assay type: functional, cell-based
[6] = target: T1, Broad substrate specificity ATP-binding cassette transporter ABCG2 (Homo sapiens, UniProt Q9UNQ0); experiment: Inhibition of ABCG2 (unknown origin) overexpressing in dog MDCK-II-BCRP cells measured after 30 mins by flow cytometric analysis; assay type: cell-based
T1 sequence (Q9UNQ0 whole entry): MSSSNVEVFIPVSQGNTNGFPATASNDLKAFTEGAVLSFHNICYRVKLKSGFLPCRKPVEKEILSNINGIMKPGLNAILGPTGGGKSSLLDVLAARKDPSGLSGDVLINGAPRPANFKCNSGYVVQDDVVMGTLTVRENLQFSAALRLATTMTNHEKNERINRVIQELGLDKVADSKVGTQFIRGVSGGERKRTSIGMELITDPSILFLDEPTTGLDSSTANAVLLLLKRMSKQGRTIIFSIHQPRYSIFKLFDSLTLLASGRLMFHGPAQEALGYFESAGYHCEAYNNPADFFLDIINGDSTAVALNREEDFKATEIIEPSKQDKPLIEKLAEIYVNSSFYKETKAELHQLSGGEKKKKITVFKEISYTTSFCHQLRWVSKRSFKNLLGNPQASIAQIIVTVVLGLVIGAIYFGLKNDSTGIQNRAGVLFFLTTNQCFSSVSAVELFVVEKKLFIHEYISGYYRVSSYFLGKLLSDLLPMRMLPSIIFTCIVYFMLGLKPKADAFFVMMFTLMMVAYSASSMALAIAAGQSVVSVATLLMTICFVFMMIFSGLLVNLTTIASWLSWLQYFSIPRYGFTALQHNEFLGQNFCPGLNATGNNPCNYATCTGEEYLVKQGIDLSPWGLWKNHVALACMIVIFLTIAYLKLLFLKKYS

[7] = Reversal of mitoxantrone resistance in human T8 cells; assay type: functional; details: T8 cell
[8] = target: T1, Broad substrate specificity ATP-binding cassette transporter ABCG2; experiment: Inhibition of ABCG2 (unknown origin)
[9] = target: T1, Broad substrate specificity ATP-binding cassette transporter ABCG2; experiment: Inhibition of ABCG2 (unknown origin) in Sf9 membrane vesicles using [3H] methotrexate as substrate; assay type: cell membranes
[10] = system: HEK293; experiment: Cytotoxicity against HEK293 cells expressing ABCG2-482-R in presence of methotrexate; assay type: functional, cell-based; details: Homo sapiens
[11] = system: HEK293; experiment: Cytotoxicity against HEK293 cells expressing ABCG2-482-T7 in presence of methotrexate; assay type: functional, cell-based; details: Homo sapiens
[12] = system: HEK293; experiment: Cytotoxicity against HEK293 cells expressing ABCG2-R-482 in presence of methotrexate; assay type: functional, cell-based; details: Homo sapiens

Compound: Cc1[nH]c(/C=C2\C(=O)Nc3ccc(F)cc32)c(C)c1C(=O)N[C@H]1CCN(C(=O)N(C)C)C1 [VOROLANIB]
- pIC50 [1]: 7.81
- pIC50 [2]: 7.24

Compound: COc1cc2ncnc(Nc3ccc(F)c(Cl)c3)c2cc1NC(=O)/C=C/CN1CCCCC1 [DACOMITINIB ANHYDROUS]
- pIC50 [3]: 6.73

Compound: COc1cc2/c(=N/c3ccc(Br)cc3F)nc[nH]c2cc1OCC1CCN(C)CC1 [VANDETANIB]
- pIC50 [4]: 5.91

Compound: COc1ccc2c3c([nH]c2c1)[C@@H](C=C(C)C)N1C(=O)[C@@H]2CCCN2C(=O)[C@@H]1C3
- pIC50 [5]: 6.00

- pIC50 [6]: 4.37
Compound: COc1ccc(-c2c3occc3c(OC[C@H]3OC3(C)C)c3ccc(=O)oc23)cc1OC

Compound: CC(C)C[C@@H]1c2[nH]c3ccccc3c2C[C@H]2C(=O)N[C@H](CCC(=O)OC(C)(C)C)C(=O)N12
- EC90 [7]: 85 nM

- pIC50 [8]: 8.82
Compound: Cn1cc(-c2cc3c(N4CCN(c5ncc([C@@](C)(N)c6ccc(F)cc6)cn5)CC4)ncnn3c2)cn1 [AVAPRITINIB]

Compound: C=CC(O)C#CC#CC(O)/C=C\CCCCCCC (stereo not given)
- pIC50 [9]: 4.53

Compound: C=CC(=O)Nc1cccc(Nc2nc(Nc3ccc(N4CCN(C(C)=O)CC4)cc3OC)ncc2C(F)(F)F)c1 [ROCILETINIB]
- pIC50 [10]: 7.92
- pIC50 [11]: 8.14

Compound: Nc1ncnc2c1c(-c1ccc(Oc3ccccc3)cc1)nn2C1CCCC1
- pIC50 [12]: 7.24

Compound: COc1cc2nccc(Oc3ccc(NC(=O)C4(C(=O)Nc5ccc(F)cc5)CC4)cc3)c2cc1OC [CABOZANTINIB]
- pIC50 [10]: 7.57
- pIC50 [11]: 7.47

Compound: COc1cc2c(cc1OC)CN(CCc1ccc(NC(=O)c3cccc4c(=O)c5cccc(OC)c5[nH]c34)cc1)CC2 [ELACRIDAR]
- EC90 [7]: 51 nM

Compound: Cc1cn(-c2cc(NC(=O)c3ccc(C)c(Nc4nccc(-c5cccnc5)n4)c3)cc(C(F)(F)F)c2)cn1 [NILOTINIB]
- pIC50 [10]: 6.89
- pIC50 [11]: 6.83

Compound: CC(C)C[C@@H]1c2[nH]c3ccccc3c2C[C@H]2C(=O)N[C@H](CCCCNC(=O)OC(C)(C)C)C(=O)N12
- EC90 [7]: 190 nM

Compound: COc1ccc2c3c([nH]c2c1)[C@@H](CC(C)C)N1C(=O)[C@@H](CCC(=O)OC(C)(C)C)NC(=O)[C@@H]1C3
- EC90 [7]: 23 nM

Compound: C=CC(O)C#CC#CC/C=C\CCCCCCC (stereo not given)
- pIC50 [9]: 4.38
